Results on five compounds are retold here after ChEMBL document CHEMBL1201862, “PubChem BioAssay data set” (2004).

Calls of active or inactive are those of the source.

Assay [1] in a line: general mammalian cell viability loss – activator set, cherry-pick, cytotoxicity control for miR-122 modulator project, dose response (AID 720690).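 Further: HEK293T human cells scored for general mammalian cytotoxicity.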 The assay is classed as functional, cell-based.
Assay [2] is described as follows: general mammalian cell viability loss – inhibitor set, cherry-pick, set 2, cytotoxicity control for miR-122 modulator project, dose response (AID 720697). The assay is classed as functional, cell-based.
Assay [3] is described as follows: activation of miR-122 Renilla sensor silencing – cell-based, Huh7 psiCHECK-miR122, Renilla luciferase, cherry-picked, dose response (AID 651956).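 Further: huh7 hepatoma cells stably carrying a psiCHECK-2 miR-122 sensor plasmid; renilla luciferase signal reporting endogenous miR-122 activity after 48 h compound exposure.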 Format: functional.
For the next assay, the target named is T1, Protein RecA (Mycobacterium tuberculosis, UniProt P9WHJ3).
T1 sequence (P9WHJ3 whole entry): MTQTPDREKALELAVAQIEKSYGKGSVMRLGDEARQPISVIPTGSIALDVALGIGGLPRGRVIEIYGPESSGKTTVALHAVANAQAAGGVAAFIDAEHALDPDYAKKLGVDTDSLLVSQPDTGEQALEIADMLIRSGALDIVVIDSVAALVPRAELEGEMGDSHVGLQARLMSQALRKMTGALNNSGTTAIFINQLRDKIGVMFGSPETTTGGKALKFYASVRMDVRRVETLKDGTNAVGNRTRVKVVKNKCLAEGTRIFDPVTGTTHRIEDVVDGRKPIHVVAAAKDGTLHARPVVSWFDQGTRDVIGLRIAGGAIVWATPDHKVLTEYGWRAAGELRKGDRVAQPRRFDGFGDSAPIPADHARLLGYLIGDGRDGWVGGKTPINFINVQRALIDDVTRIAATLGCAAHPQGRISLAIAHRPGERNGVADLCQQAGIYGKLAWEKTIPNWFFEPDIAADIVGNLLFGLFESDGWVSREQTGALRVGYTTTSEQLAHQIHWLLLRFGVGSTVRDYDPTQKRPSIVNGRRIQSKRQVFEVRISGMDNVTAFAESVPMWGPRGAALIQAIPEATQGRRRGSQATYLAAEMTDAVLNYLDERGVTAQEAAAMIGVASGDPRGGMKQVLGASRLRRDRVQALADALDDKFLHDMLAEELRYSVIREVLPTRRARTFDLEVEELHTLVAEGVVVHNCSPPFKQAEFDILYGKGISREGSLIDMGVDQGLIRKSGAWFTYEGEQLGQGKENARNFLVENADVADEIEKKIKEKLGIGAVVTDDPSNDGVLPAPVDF
The experiment in a line: Fluorescence Cell-Free Homogeneous Dose Retest to Identify Inhibitors of RecA-Intein Splicing Activity. [Related pubchem assays (depositor defined):AID2097, AID2223, AID489010, AID492950]. The assay is classed as functional.

The next assay addresses T2, Caspase-6 (Homo sapiens, UniProt P55212).
T2 sequence (P55212 whole entry): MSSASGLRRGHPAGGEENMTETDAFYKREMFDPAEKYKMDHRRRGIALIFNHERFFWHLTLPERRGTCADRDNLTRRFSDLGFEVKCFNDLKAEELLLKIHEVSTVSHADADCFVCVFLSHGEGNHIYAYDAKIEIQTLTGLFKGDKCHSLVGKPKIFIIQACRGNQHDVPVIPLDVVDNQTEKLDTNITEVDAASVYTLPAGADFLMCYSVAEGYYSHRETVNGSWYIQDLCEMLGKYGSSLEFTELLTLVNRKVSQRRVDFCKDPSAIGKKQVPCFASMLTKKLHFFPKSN
Put plainly: inhibition of CASP6 peptide cleavage – biochemical, VEID-R110 fluorescence, cherry-pick, dose response (AID 720632).

The target in assay [4] is T3, Replicative DNA helicase DnaB (Mycobacterium tuberculosis, UniProt P9WMR3).
T3 sequence (P9WMR3 whole entry): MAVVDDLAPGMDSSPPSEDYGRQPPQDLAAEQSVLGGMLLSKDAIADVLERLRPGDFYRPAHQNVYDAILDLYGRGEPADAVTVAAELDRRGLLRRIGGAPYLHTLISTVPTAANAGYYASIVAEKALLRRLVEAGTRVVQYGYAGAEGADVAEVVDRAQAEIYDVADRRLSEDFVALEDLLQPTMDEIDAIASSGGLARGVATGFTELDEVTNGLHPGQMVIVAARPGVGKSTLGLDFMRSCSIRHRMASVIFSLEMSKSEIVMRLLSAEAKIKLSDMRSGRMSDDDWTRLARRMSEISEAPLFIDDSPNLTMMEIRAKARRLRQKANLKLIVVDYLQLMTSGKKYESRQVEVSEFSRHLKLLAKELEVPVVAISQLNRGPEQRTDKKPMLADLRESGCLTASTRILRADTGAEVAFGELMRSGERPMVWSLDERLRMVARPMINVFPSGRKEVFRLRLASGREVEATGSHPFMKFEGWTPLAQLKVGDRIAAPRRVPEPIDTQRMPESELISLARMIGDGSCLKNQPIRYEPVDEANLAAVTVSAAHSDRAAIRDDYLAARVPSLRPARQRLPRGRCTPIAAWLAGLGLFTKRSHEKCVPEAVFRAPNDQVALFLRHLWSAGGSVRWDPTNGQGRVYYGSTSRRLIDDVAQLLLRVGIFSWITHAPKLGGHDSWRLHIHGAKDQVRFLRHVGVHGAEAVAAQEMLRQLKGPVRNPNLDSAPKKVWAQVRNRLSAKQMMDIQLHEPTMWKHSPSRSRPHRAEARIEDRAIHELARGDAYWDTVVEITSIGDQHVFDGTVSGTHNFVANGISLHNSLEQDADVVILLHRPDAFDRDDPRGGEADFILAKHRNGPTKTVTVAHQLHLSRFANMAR
Put plainly: DnaB intein splicing inhibitors, dose response, biochemical, cell-free fluorescence (AID 449749). The assay is classed as functional.

Assay [5] has as its target T4, Tyrosyl-DNA phosphodiesterase 2 (Homo sapiens, UniProt O95551).
T4 sequence (O95551 whole entry): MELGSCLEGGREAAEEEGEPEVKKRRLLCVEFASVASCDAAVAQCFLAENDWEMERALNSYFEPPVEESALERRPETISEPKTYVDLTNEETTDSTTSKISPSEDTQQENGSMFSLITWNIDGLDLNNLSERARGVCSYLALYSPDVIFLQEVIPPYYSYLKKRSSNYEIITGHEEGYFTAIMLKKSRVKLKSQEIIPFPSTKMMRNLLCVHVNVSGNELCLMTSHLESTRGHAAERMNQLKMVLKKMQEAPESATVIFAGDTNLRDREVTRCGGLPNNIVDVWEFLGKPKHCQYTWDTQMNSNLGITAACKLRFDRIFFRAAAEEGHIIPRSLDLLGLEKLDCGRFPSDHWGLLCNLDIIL
The experiment in a line: potency against TDP2 phosphodiesterase activity – biochemical, epi absorbance, IC50, dose response (AID 743297).

Assay [6] addresses Heat shock protein HSP 90-alpha (Homo sapiens, UniProt P07900). The assay is classed as functional, organism-based.
A further assay deals with Nonstructural protein 1 (Influenza A virus, UniProt Q194T2). Format: functional, Influenza A virus (A/California/07/2009(H1N1)).
Nonstructural protein 1, sequence (Q194T2 whole entry): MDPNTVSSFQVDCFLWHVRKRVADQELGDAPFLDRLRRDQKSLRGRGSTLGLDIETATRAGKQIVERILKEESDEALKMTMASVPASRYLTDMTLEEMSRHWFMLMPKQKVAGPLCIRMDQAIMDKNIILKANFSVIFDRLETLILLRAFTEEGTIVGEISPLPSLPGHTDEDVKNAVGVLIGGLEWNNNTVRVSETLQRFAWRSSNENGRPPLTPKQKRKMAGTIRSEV
Assay [7] has as its target T5, Histone-lysine N-methyltransferase NSD2 (Homo sapiens, UniProt O96028).
T5 sequence (O96028 whole entry): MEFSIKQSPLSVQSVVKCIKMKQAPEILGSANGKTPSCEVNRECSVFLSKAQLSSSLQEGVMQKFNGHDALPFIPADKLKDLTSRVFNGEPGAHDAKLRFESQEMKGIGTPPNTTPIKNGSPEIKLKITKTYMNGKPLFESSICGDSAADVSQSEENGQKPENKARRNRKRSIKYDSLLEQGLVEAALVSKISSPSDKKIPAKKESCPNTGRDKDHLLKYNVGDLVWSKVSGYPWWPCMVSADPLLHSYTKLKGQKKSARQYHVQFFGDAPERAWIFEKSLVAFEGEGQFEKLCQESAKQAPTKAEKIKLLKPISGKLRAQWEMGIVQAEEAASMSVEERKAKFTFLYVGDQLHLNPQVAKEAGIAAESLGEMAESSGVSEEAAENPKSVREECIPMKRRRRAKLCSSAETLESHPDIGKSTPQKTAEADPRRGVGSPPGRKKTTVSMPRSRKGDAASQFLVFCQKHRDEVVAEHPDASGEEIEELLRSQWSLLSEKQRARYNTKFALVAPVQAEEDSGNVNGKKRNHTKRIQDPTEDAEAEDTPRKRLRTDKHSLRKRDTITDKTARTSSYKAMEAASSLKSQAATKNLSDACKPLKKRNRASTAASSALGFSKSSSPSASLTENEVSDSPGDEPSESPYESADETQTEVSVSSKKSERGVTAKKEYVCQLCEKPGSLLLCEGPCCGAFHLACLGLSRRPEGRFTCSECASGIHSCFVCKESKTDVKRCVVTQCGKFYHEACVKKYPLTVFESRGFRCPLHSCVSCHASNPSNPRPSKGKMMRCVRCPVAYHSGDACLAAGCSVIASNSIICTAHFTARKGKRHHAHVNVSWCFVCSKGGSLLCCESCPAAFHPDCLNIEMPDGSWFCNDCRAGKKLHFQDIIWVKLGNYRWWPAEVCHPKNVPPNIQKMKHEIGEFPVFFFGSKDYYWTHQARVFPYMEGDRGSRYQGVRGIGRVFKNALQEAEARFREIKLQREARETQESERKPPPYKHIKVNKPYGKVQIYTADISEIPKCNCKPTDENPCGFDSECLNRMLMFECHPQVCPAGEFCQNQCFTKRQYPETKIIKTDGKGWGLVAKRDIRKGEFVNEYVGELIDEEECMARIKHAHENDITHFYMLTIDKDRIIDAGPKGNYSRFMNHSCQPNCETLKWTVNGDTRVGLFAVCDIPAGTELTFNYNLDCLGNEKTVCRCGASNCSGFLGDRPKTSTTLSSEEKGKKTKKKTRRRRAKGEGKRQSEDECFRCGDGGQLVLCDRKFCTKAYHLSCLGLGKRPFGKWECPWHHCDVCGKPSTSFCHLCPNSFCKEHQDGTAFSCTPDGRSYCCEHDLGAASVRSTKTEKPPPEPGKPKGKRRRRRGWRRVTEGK
The assay is classed as biochemical.

For assay [8], the target named is T6, Corticotropin-releasing factor receptor 2/Corticotropin-releasing factor-binding protein (Homo sapiens, UniProt P24387+Q13324).
T6 sequence (Q13324 whole entry): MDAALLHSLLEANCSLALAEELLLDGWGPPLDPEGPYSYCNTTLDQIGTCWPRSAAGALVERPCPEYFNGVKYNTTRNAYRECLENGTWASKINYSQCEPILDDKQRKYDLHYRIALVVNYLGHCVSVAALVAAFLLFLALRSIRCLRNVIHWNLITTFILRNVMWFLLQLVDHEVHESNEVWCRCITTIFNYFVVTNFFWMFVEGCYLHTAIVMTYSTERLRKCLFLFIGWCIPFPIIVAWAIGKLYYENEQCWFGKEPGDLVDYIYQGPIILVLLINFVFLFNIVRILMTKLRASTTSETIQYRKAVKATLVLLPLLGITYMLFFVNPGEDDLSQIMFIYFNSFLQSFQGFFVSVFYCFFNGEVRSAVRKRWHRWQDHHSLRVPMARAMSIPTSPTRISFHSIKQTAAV
T6 sequence (P24387 whole entry): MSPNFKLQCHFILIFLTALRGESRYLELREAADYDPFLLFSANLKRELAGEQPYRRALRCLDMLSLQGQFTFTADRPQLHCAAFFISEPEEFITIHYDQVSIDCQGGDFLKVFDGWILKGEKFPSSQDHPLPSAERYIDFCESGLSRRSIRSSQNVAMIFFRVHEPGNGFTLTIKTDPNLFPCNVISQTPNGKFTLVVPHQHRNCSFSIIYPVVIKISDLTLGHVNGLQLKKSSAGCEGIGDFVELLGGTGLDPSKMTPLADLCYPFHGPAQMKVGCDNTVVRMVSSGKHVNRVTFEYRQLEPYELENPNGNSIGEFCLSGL
The experiment in a line: Dose Response confirmation of uHTS hits for small molecule antagonists of the CRF-binding protein and CRF-R2 receptor complex. Format: functional. As to conditions: read-out: IC50_Mean.

Assay [9] concerns the target T6, Corticotropin-releasing factor receptor 2/Corticotropin-releasing factor-binding protein. Put plainly: activators of CRF receptor 2 with binding protein – uHTS hits, confirmation (AID 602473). Format: functional. Conditions: read-out: EC50_Mean.
Assay [10] is described as follows: blockers of CRF-binding protein–CRF-R2 complex – cell-based, uHTS hits, 384-well, dose response (AID 651639). The assay is classed as functional, Homo sapiens. Conditions: read-out: IC50_Mean.
Assay [11] is described as follows: fluconazole-exposed Candida albicans growth modulators – fluorescence, retest, confirmation (AID 2467). Format: functional, cell-based.
Assay [12] in a line: NIH-3T3 fibroblast cytotoxicity, dose response, cytotoxicity control, cell-based, fluorescence, Alamar Blue, secondary assay (AID 2327).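 Further: NIH-3T3 mouse fibroblasts cultured with fluconazole at 8 µg/mL.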 The assay is classed as functional. (Resazurin is reduced to fluorescent resorufin, in cell work by metabolically active cells.)
In another assay the target is Genome polyprotein (dengue virus type 2, UniProt P29990). Put plainly: flavivirus cap methylation enzyme inhibition – biochemical, confirmation dose response, primary screen (AID 588689). The assay is classed as functional.
Genome polyprotein, sequence (P29990 2492-3391 limits assumed): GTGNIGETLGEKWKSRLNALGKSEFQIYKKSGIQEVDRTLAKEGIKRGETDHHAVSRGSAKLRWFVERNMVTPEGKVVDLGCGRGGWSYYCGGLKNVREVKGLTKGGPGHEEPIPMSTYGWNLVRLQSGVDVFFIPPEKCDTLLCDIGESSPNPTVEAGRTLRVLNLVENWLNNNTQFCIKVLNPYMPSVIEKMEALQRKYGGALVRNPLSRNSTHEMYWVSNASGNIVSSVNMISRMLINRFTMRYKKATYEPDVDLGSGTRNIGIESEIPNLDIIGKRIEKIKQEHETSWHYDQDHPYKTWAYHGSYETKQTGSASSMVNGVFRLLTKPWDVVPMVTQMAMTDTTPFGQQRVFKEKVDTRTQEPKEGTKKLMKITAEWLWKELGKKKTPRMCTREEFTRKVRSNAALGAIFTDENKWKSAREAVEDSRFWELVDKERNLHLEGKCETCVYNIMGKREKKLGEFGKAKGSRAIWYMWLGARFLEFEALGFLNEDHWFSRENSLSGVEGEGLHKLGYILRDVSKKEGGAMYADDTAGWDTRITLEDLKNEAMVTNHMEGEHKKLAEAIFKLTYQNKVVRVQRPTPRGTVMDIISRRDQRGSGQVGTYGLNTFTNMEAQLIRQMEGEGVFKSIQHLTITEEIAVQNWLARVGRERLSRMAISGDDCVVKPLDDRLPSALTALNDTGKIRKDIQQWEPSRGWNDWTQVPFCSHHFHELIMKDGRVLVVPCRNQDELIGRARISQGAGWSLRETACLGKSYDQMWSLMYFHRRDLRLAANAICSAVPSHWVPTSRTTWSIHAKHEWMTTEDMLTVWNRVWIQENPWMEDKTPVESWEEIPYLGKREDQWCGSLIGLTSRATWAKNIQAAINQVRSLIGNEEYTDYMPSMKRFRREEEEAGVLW
Assay [13] is described as follows: viability of uninfected HEp-2 cells – cell-based, HTS, cytotoxicity control for RSV inhibitor project, dose response (AID 2410). Format: functional. Conditions: human respiratory syncytial virus.

Take `CN1C(=O)c2cc(NC(=O)c3ccc(C(F)(F)F)cc3)ccc2OC[C@@H]2O[C@@H](CC(=O)NC3Cc4ccccc4C3)CC[C@@H]21`: the AC50 (as a rule, the midpoint of the concentration-response curve, whichever way the signal moves) was 49.1 µM (active) in [1], < 0.195 µM (active) in assay [2] and 4.71 µM (active) in assay [3].
Consider `Cc1nnc(N/N=C/c2ccccc2O)n1N`, for which, on Protein RecA, the EC50 was 4.08 µM (active). Besides, the concentration at half-maximal activity (AC50) on Caspase-6 is 13.3 µM (active); in [4] it was 7.65 µM (active). In [5], the IC50 is > 128 µM (inactive).
As for `CCN1/C(=C/c2ccc3cc(C)cc(C)c3[n+]2CC)Sc2cc(C)ccc21`, the half-maximal activity concentration (AC50) is 2.86 µM (active) in assay [6] and 7.93 µM (active) in [7]. The IC50 on Nonstructural protein 1 is 17.6 µM (active).
As for `COc1ccc(-c2csc(NC(=O)CSc3nc(SC)ns3)n2)cc1`, the IC50 in assay [8] is 1.75 µM (active); in [10] it was 4.64 µM (active). Moreover, in assay [9], the EC50 is > 53 µM (inactive).
For `C=CCOc1ccc(/C=C2\SC(=S)N(NS(=O)(=O)c3ccc(C)cc3)C2=O)cc1`, the EC50 in assay [11] is 1.66 µM (active); in assay [12], > 160 µM (inactive). The IC50 at Genome polyprotein was 32.9 µM (active). The CC50 (commonly the concentration that lowers cell viability or growth by half) in assay [13] was 25 µM (active). The concentration at half-maximal activity (AC50) in assay [7] is 11.7 µM (active).
